{
  "source": "patent US20250263439A1",
  "about": "“HETERODIMERIC PEPTIDE REAGENTS AND METHODS” (REGENTS OF THE UNIVERSITY OF MICHIGAN, priority 2018, published 2025)",
  "key": {"OE33 xenograft tumors": {"tested_on": "OE33 xenograft tumors", "experiment": "In vivo NIR fluorescence imaging of OE33 xenograft tumors (Cy5.5)", "parameters": "species or system nude mice", "experimental": "(§1) Optical imaging was performed in nude mice bearing xenograft tumors in vivo to characterize pharmacokinetics and assess toxicity. All experimental procedures were performed in accordance with relevant guidelines and regulations of the University of Michigan, and all animal studies were conducted with approval by the University Committee on the Use and Care of Animals (UCUCA). Animals were housed per guidelines of the Unit for Laboratory Animal Medicine (ULAM).\nFemale athymic nude mice (002019 Foxn1, Jackson Laboratories) were obtained at 4-5 weeks of age, and were housed with four animals per cage and fed with sterilized pellet chow and water. Mice were anesthetized in an isoflurane chamber, and OE33 xenograft tumors were generated by subcutaneous injection of about 5×10^7 tumor cells suspended in […] of sterile PBS in the hind limb flank. Mice were studied at about 3-4 weeks post-inoculation when the tumor volume reached about 0.5-0.8 cm in size.\nIn vivo fluorescence images were collected using the Xenogen IVIS™ 200 small animal imaging system. Fluorescence intensities were measured and normalized. […] Images were collected prior to peptide injection to assess baseline auto-fluorescence values and then at various time points post-injection up to 24 hours, FIG. 5A. Fluorescence images were excited at λex=675 nm, and emission was collected at λem=740 nm with 5 sec exposure (f/stop=8)."}, "[1]": {"experiment": "Acute toxicity, histology (H&E) of major organs", "format": "in vivo, mice", "settings": "brain, heart, kidney, liver, spleen and lung; after day 15", "experimental": "as §1"}, "[2]": {"tested_on": "OE33 human esophageal adenocarcinoma cells", "experiment": "Confocal microscopy binding of heterodimer versus monomers to OE33 cells", "format": "cell-based"}, "[3]": {"tested_on": "EGFR or ErbB2 in SKBr3 cells", "experiment": "siRNA knockdown of EGFR or ErbB2 in SKBr3 cells, confocal binding", "format": "cell-based, human", "experimental": "siRNA knockdown experiments were performed to further validate specific heterodimer binding to either EGFR or ErbB2 in vitro. Separate siRNA knockdown of either EGFR or ErbB2 expression in SkBr3 cells was carried out to validate specific peptide binding. ON-TARGET plus human EGFR siRNA (#L-003114-00-0005), ONTARGET plus human ErbB2 siRNA (#L-003126-00-0005) and ON-TARGET plus non-targeting pool (#D-001810-10-05) were used.\nsiRNA at 5 μM concentration in 5 μL was transfected into SKBr3 cells using DharmaFECT transfection reagents (Thermo Scientific). Briefly, cells were seeded in 6-well culture plates at 30% confluence in McCoy's 5 Å media supplemented with 10% FBS without antibiotics. The cells were transfected with siRNA at a final concentration of […] using oligofectamine (Thermo Scientific). Knockdown of either EGFR or ErbB2 was confirmed by Western blot."}, "[4]": {"experiment": "Hydrophilicity of heterodimer", "format": "physicochemical"}, "OE33 cells": {"tested_on": "OE33 cells", "experiment": "Apparent association time constant by flow cytometry with OE33 cells", "format": "binding, human", "experimental": "The apparent association time constant (Ka) was measured to assess binding kinetics to OE33 cells. OE33 cells were grown to about 80% confluence in 10 cm dishes, and cells were then detached with PBS-based cell dissociation buffer (Invitrogen). About 10^5 cells were incubated with 1 μM of the heterodimer at 4° C. for different time periods ranging from […]. The cells were centrifuged, washed with cold PBS, and fixed with 4% PFA. Flow cytometry was performed, and the median fluorescence intensity (y) was ratioed with that of OE33 cells without addition of peptide at time points (t) using Flowjo software. The rate constant K was calculated by fitting the data to the first-order kinetics model, y(t)=Imax[1−exp^(−kt)], where Imax=maximum value, using Prism 5.0 software."}, "[5]": {"tested_on": "EGFR and/or ErbB2 in SKBr3 cells", "experiment": "Co-localization of Cy5.5 heterodimer with anti-EGFR and anti-ErbB2 antibodies on SKBr3 cells", "format": "cell-based, human", "settings": "confocal microscopy", "experimental": "Co-localization experiments were performed to validate specific heterodimer binding to EGFR and/or ErbB2 in SKBr3 cells. Cells were cultured to about 70% confluence on glass coverslips, washed with PBS, and incubated with 2% BSA in PBS for 30 min to block non-specific binding. 1 μM of Cy5.5-labeled peptides were added and incubated for 30 min or 1 hour at 4° C. The cells were then washed 3× with PBS, fixed with ice cold 4% paraformaldehyde (PFA) for 10 min, washed with PBS 1×, and then mounted on glass slides with ProLong Gold reagent containing DAPI (Invitrogen).\nFor antibody staining, cells were incubated with either anti-EGFR (1:500, #2232S) or anti-ErbB2 (1:500, #29D8) primary antibody from Cell Signaling Inc overnight at 4° C. after fixation, and then washed with PBS 3× and processed with secondary antibody staining. Either goat anti-rabbit IgG (H+L) labeled with Alexa-Fluor 488 (1:1000, #A-11008, Invitrogen) or goat anti-mouse IgG (H&L) labeled with Alexa-Fluor 568 (1:1000, #ab175473, Abcam) was added and incubated for 1 hour at room temperature (RT). The cells were washed with PBS 3×, and mounted onto glass coverslips. Confocal fluorescence images were collected using DAPI, AF488, AF568 and Cy5.5 filter sets. Fluorescence intensities from 3 independent images were quantified using custom Matlab (Mathworks) software."}},
  "note": "“Also recorded” adds a separate entry of the source.",
  "data": [
    {"substance": "heterodimer of QRHKPRE (SEQ ID NO: 1) and KSPNPRF (SEQ ID NO: 2) with E3 (triethyleneglycol) linker, Cy5.5 label [QRH*-KSP*-E3-Cy5.5]", "values": [
      {"measurement": "peak mean tumor signal versus control peptide", "setting": "OE33 xenograft tumors; about 2 hours after intravenous injection, n=6", "result": "significantly greater"},
      {"measurement": "time of return of signal to baseline / systemic clearance", "setting": "OE33 xenograft tumors; intravenous, OE33 xenograft", "result": "about 24 hours"},
      {"measurement": "acute toxicity on histology (H&E)", "setting": "[1]", "result": "no sign of acute toxicity"},
      {"measurement": "greater fluorescence intensity compared with either monomer alone", "setting": "[2]", "result": 3, "unit": "fold"},
      {"measurement": "binding to siCL (control) versus siEGFR (knockdown) SKBr3 cells", "setting": "[3]; confocal microscopy, similar results for siErbB2", "result": "Less signal; also recorded: significantly greater binding"},
      {"measurement": "binding to surface of siCL (control) SKBr3 cells", "setting": "[3]; non-targeting siRNA", "result": "strong binding"},
      {"measurement": "mean fluorescence intensity in EGFR or ErbB2 knockdown cells", "setting": "[3]; quantified, versus control SKBr3 cells", "result": "significant reduction"},
      {"measurement": "Hydrophilicity", "setting": "[4]", "result": "good"},
      {"measurement": "apparent association time constant Ka", "setting": "OE33 cells; flow cytometry, 1 μM, 4° C.", "result": 0.22, "unit": "min⁻¹"},
      {"measurement": "apparent association time constant (time)", "setting": "OE33 cells; value in brackets after Ka", "result": 4.5, "unit": "min"},
      {"measurement": "binding to surface of SKBr3 cells", "setting": "[5]", "result": "bind strongly"}
    ]}
  ]
}
